The assay has as its target T1, DGAT1 (Homo sapiens, UniProt O75907).
T1 sequence (O75907 1-488): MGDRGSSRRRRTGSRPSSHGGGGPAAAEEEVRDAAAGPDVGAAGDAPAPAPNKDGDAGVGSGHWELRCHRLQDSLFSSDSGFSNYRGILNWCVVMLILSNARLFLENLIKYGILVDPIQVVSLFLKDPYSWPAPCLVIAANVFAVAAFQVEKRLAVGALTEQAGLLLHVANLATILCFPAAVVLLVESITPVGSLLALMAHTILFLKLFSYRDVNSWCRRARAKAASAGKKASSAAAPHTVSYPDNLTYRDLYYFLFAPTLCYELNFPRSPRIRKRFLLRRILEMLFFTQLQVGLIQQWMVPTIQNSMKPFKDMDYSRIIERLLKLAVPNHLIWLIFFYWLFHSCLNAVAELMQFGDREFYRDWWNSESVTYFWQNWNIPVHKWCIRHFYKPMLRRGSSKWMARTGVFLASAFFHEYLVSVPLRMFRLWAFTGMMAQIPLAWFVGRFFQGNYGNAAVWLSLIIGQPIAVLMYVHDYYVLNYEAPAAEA
Put plainly: Human DGAT1 IC50 enzyme assay (Flashplate, 14C-labeled acyl-CoA). Also noted: made in house. Type of assay: biochemical. The method, then:
The ability of compounds to inhibit DGAT enzyme activity is determined by calculating IC50 values of test compounds. Ki values of DGAT1 are calculated as follows: Cheng-Prusoff equation: Ki=IC50/(1+[S]/Km)
(1) Human DGAT1 IC50 (nM) Experiment
Human DGAT1 activity was determined as follows:
Expressing human DGAT1 enzyme, used diacylglycerol and 14C-labeled acyl-CoA as the substrate, choose PE Company Flashplate testing board to build DGAT1 enzyme reaction system. 14C-labeled acyl-CoA binds to diacylglycerol by covalent bonding after enzymology reaction, and generates the product of 14C-labeled triglyceride. 14C-labeled acyl-CoA substrate is dissolved in reaction solution and 14C-labeled triglyceride product combine with phospholipids of Flashplate plate bottom layer, thus effectively separate labeled substrates and products. The radioactive of 14C-labeled triglyceride which is combined with phospholipid layer is counted, and the potencies of DGAT-1 inhibition for the compounds are determined by calculating the IC50 values.

The mark [1] stands for this setting: average of first and second, read-out: hDGAT1 IC50(nM) Average.
The mark [2] stands for this setting: first determination, read-out: hDGAT1 IC50(nM) First.
The mark [3] stands for this setting: second determination, read-out: hDGAT1 IC50(nM) Second.

The values that follow come from US9809604B2, “DGAT1 inhibitor and preparation method and use thereof” (Qingdao Huanghai Pharmaceutical Co., Ltd., priority 2013, dated 2017).

Where two headings read alike, the source gives them in different places.

Consider `Cc1cc(N2CCOc3ncnc(N)c3C2=O)ccc1N1CCN(CC(=O)O)C1=O` [Compound 3, 2-(3-(4-(4-amino-5-oxo-7,8-dihydropyrimido[5,4-f][1,4]oxazepin-6(5H)-yl)-2-methylphenyl)-2-oxoimidazolidin-1-yl)acetate acid], for which the IC50 under setting [1] was determined as 65.2 nM, the IC50 under setting [2] was determined as 60.9 nM and the IC50 under setting [3] was determined as 69.5 nM.
The like results for `Nc1ncnc2c1C(=O)N(c1ccc(N3CCN(CC(F)(F)F)C3=O)c(Cl)c1)CCO2` [Compound 8, 4-amino-6-(3-chloro-4-(2-oxo-3-(2,2,2-trifluoroethyl)imidazolidin-1-yl)phenyl)-7,8-dihydropyrimido[5,4-f][1,4]oxazepin-5(6H)one] were, in that order, 38.9 nM, 41.9 nM and 35.9 nM.
The like results for `NC(=O)Cn1cc(-c2ccc(N3CCOc4ncnc(N)c4C3=O)cc2Cl)cn1` [Compound 46, 2-(4-(4-(4-amino-5-oxo-7,8-dihydropyrimido[5,4-f][1,4]oxazepin-6(5H)-yl)-2-chlorophenyl)-1H-pyrazol-1-yl)acetamide] were, in that order, 95.6 nM, 89 nM and 102 nM.
For `Cc1nn(CCC(=O)O)c(C)c1-c1ccc(N2CCOc3ncnc(N)c3C2=O)cc1` [Compound 76], the IC50 came out at 23.5 nM under setting [1], 14.6 nM under setting [2] and 32.4 nM under setting [3].
The like results for `CC(C)(C(=O)O)n1cc(-c2ccc(N3CCOc4ncnc(N)c4C3=O)cc2Cl)cn1` [Compound 33, 2-(4-(4-(4-amino-5-oxo-7,8-dihydropyrimido[5,4-f][1,4]oxazepin-6(5H)-yl)-2-chlorophenyl)-1H-pyrazol-1-yl)-2-methylpropanoic acid] were, in that order, 36.8 nM, 26.9 nM and 46.7 nM.
For `Nc1ncnc2c1C(=O)N(c1ccc(-n3ccn(CC(=O)O)c3=O)c(Cl)c1)CCO2` [Compound 28, 2-(3-(4-(4-amino-5-oxo-7,8-dihydropyrimido [5,4-f][1,4]oxazepin-6(5H)-yl)-2-chlorophenyl)-2-oxo-2,3-dihydro-1H-imidazol-1-yl)acetic acid], in that order: 41.8 nM, 45.6 nM and 37.9 nM.
For `Nc1ncnc2c1C(=O)N(c1ccc(-c3cnn(CCC(=O)O)c3)c(Cl)c1)CCO2` [Compound 35, 3-(4-(4-(4-amino-5-oxo-7,8-dihydropyrimido[5,4-f][1,4]oxazepin-6(5H)-yl)-2-chlorophenyl)-1H-pyrazol-1-yl)propanoic acid], in that order: 25.8 nM, 24.8 nM and 26.7 nM.
Turning to `Cc1nn(CCC(=O)O)c(C)c1-c1ccc(N2CCOc3ncnc(N)c3C2=O)cc1Cl` [Compound 38, 3-(4-(4-(4-amino-5-oxo-7,8-dihydropyrimido[5,4-f][1,4]oxazepin-6(5H)-yl)-2-chlorophenyl)-3,5-dimethyl-1H-pyrazol-1-yl)propanoic acid], the IC50 by setting is: under setting [1], 50.7 nM; under setting [2], 46.5 nM; under setting [3], 55 nM.
For `Nc1ncnc2c1C(=O)N(c1ccc(-c3cnn(CC4CC4)c3)c(Cl)c1)CCO2` [Compound 87, 4-amino-6-(3-chloro-4-(1-(cyclopropylmethyl)-1H-pyrazol-4-yl)phenyl)-7,8-dihydropyrimido[5,4-f][1,4]oxazepin-5(6H)-one], in that order: 46.7 nM, 49.3 nM and 44.2 nM.
The like results for `CC(C)(CO)Cn1cc(-c2ccc(N3CCOc4ncnc(N)c4C3=O)cc2Cl)cn1` [Compound 44, 4-amino-6-(3-chloro-4-(1-(3-hydroxy-2,2-dimethylpropyl)-1H-pyrazol-4-yl)phenyl)-7,8-dihydropyrimido[5,4-f][1,4]oxazepin-5(6H)-one] were, in that order, 45 nM, 59.5 nM and 30.5 nM.
For `CC(C)(F)Cn1cc(-c2ccc(N3CCOc4ncnc(N)c4C3=O)cc2Cl)cn1` [Compound 91, 4-amino-6-(3-chloro-4-(1-(2-fluoro-2-methylpropyl)-1H-pyrazol-4-yl)phenyl)-7,8-dihydropyrimido[5,4-f][1,4]oxazepin-5(6H)-one], in that order: 20 nM, 12.5 nM and 27.5 nM.
With `Cc1cc(N2CCOc3ncnc(N)c3C2=O)cc(C)c1-c1cnn(C(C)(C)C(=O)O)c1` [Compound 66, 2-(4-(4-(4-amino-5-oxo-7,8-dihydropyrimido [5,4-f][1,4]oxazepin-6(5H)-yl)-2,6-dimethylphenyl)-1H-pyrazol-1-yl)-2-methylpropanoic acid], the IC50 is, setting by setting: under setting [1], 42.6 nM; under setting [2], 47.1 nM; under setting [3], 38.2 nM.
The like results for `Cc1cc(N2CCOc3ncnc(N)c3C2=O)cc(C)c1-c1cnn(CC(=O)O)c1` [Compound 67, 2-(4-(4-(4-amino-5-oxo-7,8-dihydropyrimido [5,4-f][1,4]oxazepin-6(5H)-yl)-2,6-dimethylphenyl)-1H-pyrazol-1-yl)acetic acid] were, in that order, 53.2 nM, 56.1 nM and 50.3 nM.
For `Nc1ncnc2c1C(=O)N(c1ccc3c(c1)CCC(OCC(F)(F)F)C3)CCO2` (single isomer, unassigned) [Compound 108 (peak2), 4-amino-6-(6-(2,2,2-trifluoroethoxy)-5,6,7,8-tetrahydonaphthalen-2-yl)-7,8-dihydropyrimido[5,4-f][1,4]oxazepin-5-(6H)-one], in that order: 52.6 nM, 56.4 nM and 48.8 nM.
For `Nc1ncnc2c1C(=O)N(c1ccc(-c3cn(CC(=O)O)nc3C(F)(F)F)cc1)CCO2` [Compound 39, 2-(4-(4-(4-amino-5-oxo-7,8-dihydropyrimido[5,4-f][1,4]oxazepin-6(5H)-yl)phenyl)-3-(trifluoromethyl)-1H-pyrazol-1-yl)acetic acid], in that order: 98.4 nM, 72.9 nM and 124 nM.
On to `CC(C)(F)CN1CCN(c2ccc(N3CCOc4ncnc(N)c4C3=O)cc2Cl)C1=O` [Compound 31, 4-amino-6-(3-chloro-4-(3-(2-fluoro-2-methylpropyl)-2-oxoimidazolidin-1-yl)phenyl)-7,8-dihydropyrimido[5,4-f][1,4]oxazepin-5(6H)-one], for which the IC50 runs as follows: under setting [1], 23.5 nM; under setting [2], 23.6 nM; under setting [3], 23.4 nM.
For `Nc1ncnc2c1C(=O)N(c1ccc(N3CCN(CCC(=O)O)C3=O)c(Cl)c1)CCO2` [Compound 6], in that order: 31.5 nM, 24.4 nM and 38.5 nM.
In the case of `Cc1cc(N2CCOc3ncnc(N)c3C2=O)cc(C)c1-c1cn(CC(=O)O)nc1C` [Compound 73, 2-(4-(4-(4-amino-5-oxo-7,8-dihydropyrimido [5,4-f][1,4]oxazepin-6(5H)-yl)-2,6-dimethylphenyl)-3-methyl-1H-pyrazol-1-yl)acetic acid], the IC50 under setting [1] worked out at 34.4 nM, the 50% inhibitory concentration (IC50) under setting [2] is 24.5 nM and the IC50 under setting [3] stood at 44.3 nM.
The like results for `CC(C)(C)Cn1cc(-c2ccc(N3CCOc4ncnc(N)c4C3=O)cc2Cl)cn1` [Compound 88] were, in that order, 25.7 nM, 27 nM and 24.4 nM.
The like results for `CC(C)(Cn1cc(-c2ccc(N3CCOc4ncnc(N)c4C3=O)cc2Cl)cn1)C(=O)O` [Compound 71, 3-(4-(4-(4-amino-5-oxo-7,8-dihydropyrimido [5,4-f][1,4]oxazepin-6(5H)-yl)-2-chlorophenyl)-1H-pyrazol-1-yl)-2,2-dimethylpropanoic acid] were, in that order, 30.6 nM, 35.9 nM and 25.3 nM.
Take `CC(C)(F)Cn1ccc(-c2ccc(N3CCOc4ncnc(N)c4C3=O)cc2Cl)n1` [Compound 95, 4-amino-6-(3-chloro-4-(1-(2-fluoro-2-methylpropyl)-1H-pyrazol-3-yl)phenyl)-7,8-dihydropyrimido[5,4-f][1,4]oxazepin-5(6H)-one]: the IC50 under setting [1] came to 42.5 nM, the IC50 under setting [2] was found to be 32.2 nM and the IC50 under setting [3] came to 52.9 nM.
For `Nc1ncnc2c1C(=O)N(c1ccc(-c3cnn(CC(=O)O)c3)c(Cl)c1)CCO2` [Compound 56, 2-(4-(4-(4-amino-5-oxo-7,8-dihydropyrimido [5,4-f][1,4]oxaxepin-6(5H)-yl)-2-chlorophenyl)-1H-pyrazol-1-yl)acetic acid], in that order: 51.8 nM, 65.8 nM and 37.7 nM.
